Source: patent publication US6733782B1, “Core tablet for controlled release of gliclazide after oral administration” (Les Laboratories Servier, priority 1999, dated 2004)

Assay: solubility of the active ingredient according to pH (FIG. 1)
Assay type: physicochemical
Details: at acid pHs; increases as pH rises (FIG. 1)
Source text: The main aim of the invention was to obtain an oral form in which the rate of release of the active ingredient is controlled and reproducible. In fact, in the current form the dissolution of the active ingredient varies greatly according to pH. This characteristic, associated with gliclazide itself, poses absorption problems for the active ingredient. The solubility is very weak at acid pHs and increases as pH rises.
FIG. 1 represents the phenomenon of the solubility of the active ingredient varying according to pH.

solubility of the active ingredient: very weak
SMILES: Cc1ccc(S(=O)(=O)NC(=O)NN2CC3CCCC3C2)cc1 (stereo not shown) [gliclazide, Gliclazide]
